The target in one assay is T1, YTHDF2 YTH domain (Homo sapiens, UniProt Q9Y5A9).
T1 sequence (Q9Y5A9 383-553): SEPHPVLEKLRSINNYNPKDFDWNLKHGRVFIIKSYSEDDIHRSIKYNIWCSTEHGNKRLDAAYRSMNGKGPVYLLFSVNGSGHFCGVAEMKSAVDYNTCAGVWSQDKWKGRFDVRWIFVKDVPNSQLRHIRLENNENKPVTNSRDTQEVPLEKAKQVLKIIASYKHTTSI
The assay can be described thus: AlphaScreen assay. Background: Alpha assays give light when donor and acceptor beads are brought close together.

For a further assay, the system named is JAR cells. The experiment in a line: Colony formation assay. The class given is cell-based, human. The note with it: n = 3 biological replicates. How it is done:
JAR cells in the growth phase are prepared into cell suspensions by traditional digestion. A cell suspension (2 mL) with 200 cells per dish was seeded into a 6-well plate and incubated for 7 days. When visible colonies are present in the 6-well plate, the medium is discarded. The colonies are carefully soaked twice in PBS and dried in air. Cells were fixed with a 4% paraformaldehyde solution for 15 min. The paraformaldehyde solution was discarded, and Giemsa was used to stain the cells for 10 min. The dye solution was slowly washed away with Milli-Q water and then dried in air. The colony number and type were assessed manually under a microscope.

Procedure for YTHDF2 YTH domain: Initially, the YTHDF2 YTH domain at different concentrations (0–2500 nM) was incubated with varied concentrations of RNA probes (5’-Bi-CGAm6ACUGUC–3′, IDT company) (5, 25, 50, and 100 nM) in 25 mM Hepes (pH 7.5), 100 mM NaCl, and 0.1% BSA to probe the optimal ratio between protein and RNA before the detection signal reached saturation. The AlphaScreen Histidine Detection Kit (Nickel Chelate) (PerkinElmer) 6760619 M and white 384-well Optiplates (PerkinElmer) were used. Anti-His receptor beads (PerkinElmer) (final concentration: 20 μg/mL) and streptavidin donor beads (final concentration: 20 μg/mL) were first added. The reaction mixture was then incubated at room temperature in a dark environment for 1 h to reach equilibrium. The optical signal was detected using a Tecan plate reader.
The inhibitory activities of the phenylpyrazoles (at 100 µM) against YTHDF2 binders
in the amplified luminescent proximity homogeneous assay (AlphaScreen).
phenylpyrazoles featuring a 2 -hydroxybenzoyl moiety R1 (blue) and a 4 -carboxyphenyl moiety
represent average values ± s.d.

One may read the inhibition as the percentage by which the read-out fell short of the control. The low end stands for a response near the control, the high end for a response far below the control. Consider `O=C(O)c1ccc(-n2cc(C(=O)c3cc(Cl)cc(Cl)c3O)cn2)cc1` [CK-61], for which, on YTHDF2 YTH domain (100 μM compound), the “inhibition at 100 μM in AlphaScreen” value is on record as above 80%. Further, the “inhibitory IC50 in AlphaScreen (in words)” value against YTHDF2 YTH domain (Figures S3 and S4) was “low double-digit micromolar”. `O=C(O)c1ccc(-n2cc(C(=O)c3c(O)ccc4ccccc34)cn2)cc1` [CK-75]: in the assay on JAR cells, the “colony formation (in words)” value is “concentration-dependently inhibited the colony formation”.

The values are drawn from paper PMC11862924, “Phenylpyrazoles as Inhibitors of the m^6A RNA-Binding Protein YTHDF2” (JACS Au, 2025).
